Results from US20250084035A1, “POLYMORPHIC FORM OF MEISOINDIGO AND MODIFIED FORMULATION OF MEISOINDIGO” (STATIA BIOPHARMA INC., priority 2018, published 2025).

Assays:
ulcerative colitis = test: Clinical trial in ulcerative colitis; assay type: in vivo, humans; settings: recent clinical trial
[1] = Solubility in solvents (descriptive); assay type: physicochemical
leukemia cells = settings: cited from earlier work
[2] = Particle size and distribution, Malvern Mastersizer 2000; assay type: physicochemical; settings: for Particle size d10 / Particle size d50 / Particle size d90: Crystal Form I, Malvern Mastersizer 2000; for Particle Size Distribution Ratio: calculated as (d90-d10)/d50
Description: Crystal Form I was analyzed for its particle size and distribution. Five batches were tested using a Malvern Mastersizer 2000 (MIIA14730, Malvern, UK).

CN1C(=O)/C(=C2/C(=O)Nc3ccccc32)c2ccccc21 [N-methylisoindigo]
Efficacy against ulcerative colitis (ulcerative colitis): very effective | Side effects (ulcerative colitis): no significant side effects | Solubility ([1]; in acetone): sparingly soluble | Solubility ([1]; in chloroform): sparingly soluble | Solubility ([1]; in ethanol): sparingly soluble | Solubility ([1]; in water): slightly soluble | Cell cycle effect (leukemia cells; leukemia cells): arrests leukemia cells at G phase | Expression of oncogene c-myb (leukemia cells; leukemia cells): inhibits | Cell growth (leukemia cells; low concentrations, without a decrease in cell viability): completely inhibited

CN1C(=O)/C(=C2/C(=O)Nc3ccccc32)c2ccccc21 [NAT-0601, N-methylisoindigo]
Particle size d10 [2]: 2.506 μm | Particle size d50 [2]: 12.464 μm | Particle size d90 [2]: 25.635 μm | Particle Size Distribution Ratio [2]: 1.86

CN1C(=O)/C(=C2/C(=O)Nc3ccccc32)c2ccccc21 [NAT-0801, N-methylisoindigo]
Particle size d10 [2]: 3.249 μm | Particle size d50 [2]: 12.268 μm | Particle size d90 [2]: 23.99 μm | Particle Size Distribution Ratio [2]: 1.69

CN1C(=O)/C(=C2/C(=O)Nc3ccccc32)c2ccccc21 [NAT-1201, N-methylisoindigo]
Particle size d10 [2]: 3.599 μm | Particle size d50 [2]: 13.301 μm | Particle size d90 [2]: 26.897 μm | Particle Size Distribution Ratio [2]: 1.75

CN1C(=O)/C(=C2/C(=O)Nc3ccccc32)c2ccccc21 [NAT-1202, N-methylisoindigo]
Particle size d10 [2]: 5.035 μm | Particle size d50 [2]: 15.603 μm | Particle size d90 [2]: 30.339 μm | Particle Size Distribution Ratio [2]: 1.62

CN1C(=O)/C(=C2/C(=O)Nc3ccccc32)c2ccccc21 [NAT-1203, N-methylisoindigo]
Particle size d10 [2]: 5.295 μm | Particle size d50 [2]: 15.674 μm | Particle size d90 [2]: 30.015 μm | Particle Size Distribution Ratio [2]: 1.58
